Our source for the TGI values is PubChem BioAssay (NCI).

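Tested at 5 concentrations; 48 h exposure; 96-well plates; endpoints linearly interpolated, else capped at highest concentration. TGI marks complete inhibition of growth.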

Test systems include OVCAR-4 ovarian; A549 NSCLC; SK-MEL-2 melanoma; MOLT-4 leukemia; LOX IMVI melanoma; HOP-92 NSCLC; 786-0 renal; SW-620 colon; CCRF-CEM leukemia; MDA-MB-435; MALME-3M melanoma.
Test in all cases: growth of human tumour cells (NCI), 48 h

In the case of `CC(C)(C)OC(=O)NC1CCCC1C(=O)C1=CCCC1` (stereo unspecified), the TGI in the test with OVCAR-4 ovarian, in the test on A549 NSCLC, in the test on SK-MEL-2 melanoma, in the test with MOLT-4 leukemia, with LOX IMVI melanoma and in the test on HOP-92 NSCLC was > 100 µM in each case. The TGI with 786-0 renal, in the test on SW-620 colon, in the test with CCRF-CEM leukemia and in the test with MDA-MB-435 was > 100 µM throughout.

Consider `CC(C)Oc1c(C2(c3ccccc3)SCCCS2)c(=O)c1=O`, for which the TGI in the test with OVCAR-4 ovarian, with A549 NSCLC, in the test on SK-MEL-2 melanoma, in the test on MOLT-4 leukemia, in the test on LOX IMVI melanoma and with HOP-92 NSCLC was > 100 µM in each case. Also, the TGI in the test on 786-0 renal, with SW-620 colon, with CCRF-CEM leukemia and in the test on MDA-MB-435 was > 100 µM each time.

In the case of `COc1ccc(N2C(=O)c3c(c4[nH]c5ccccc5c4c4ccc(C(C)(C)C)cc34)C2=O)cc1`, the TGI is 52.9 µM in the test with OVCAR-4 ovarian; > 100 µM with A549 NSCLC; 71.8 µM with SK-MEL-2 melanoma; > 100 µM with MALME-3M melanoma; 52 µM in the test on MOLT-4 leukemia; > 100 µM in the test with LOX IMVI melanoma. The TGI in the test on HOP-92 NSCLC was 64.2 µM; in the test with 786-0 renal, > 100 µM; with SW-620 colon it was > 100 µM; in the test with CCRF-CEM leukemia it was 42.1 µM.

Take `O=C(Cc1ccccc1)NN1C(=O)C(Cl)C1c1ccccc1Cl` (stereo unspecified): the TGI is > 100 µM with OVCAR-4 ovarian; > 100 µM in the test on A549 NSCLC; > 100 µM with SK-MEL-2 melanoma; > 100 µM in the test with MALME-3M melanoma; 62.8 µM with MOLT-4 leukemia; > 59.5 µM in the test with LOX IMVI melanoma. The TGI is > 100 µM in the test with HOP-92 NSCLC, > 100 µM in the test with 786-0 renal, > 100 µM in the test with SW-620 colon and 55.8 µM with CCRF-CEM leukemia.

For `COc1ccc(-n2c(CCC(=O)O)nc3c2C(=O)c2ccccc2C3=O)cc1`, the TGI in the test on OVCAR-4 ovarian, in the test on A549 NSCLC, in the test on SK-MEL-2 melanoma, with MOLT-4 leukemia, in the test with LOX IMVI melanoma and in the test on 786-0 renal was > 100 µM each time. The TGI in the test on SW-620 colon, in the test on CCRF-CEM leukemia and in the test with MDA-MB-435 was > 100 µM each time.

On to `CC1=NN(c2nc(N)nc(NS(=O)(=O)c3cc(C)c(Cl)cc3S)n2)C(C)(C)C1`, for which the TGI in the test on OVCAR-4 ovarian, in the test with A549 NSCLC, in the test on SK-MEL-2 melanoma, with MALME-3M melanoma, in the test on MOLT-4 leukemia and in the test on LOX IMVI melanoma was > 10 µM in each case. In addition, the TGI in the test with HOP-92 NSCLC, with 786-0 renal, with SW-620 colon and with CCRF-CEM leukemia was > 10 µM in each case.

With `CC(C)c1cccc(C(C)C)c1NC(=O)C(=O)Cc1nc2ccc([N+](=O)[O-])cc2[nH]c1=O`, the TGI in the test with OVCAR-4 ovarian, in the test with A549 NSCLC, in the test on SK-MEL-2 melanoma, in the test with MALME-3M melanoma, in the test with MOLT-4 leukemia and in the test with LOX IMVI melanoma was > 100 µM each time. In addition, the TGI in the test with HOP-92 NSCLC, in the test with 786-0 renal, in the test with SW-620 colon and in the test with CCRF-CEM leukemia was > 100 µM each time.

For `COC(=O)C(CC(C)C)NC(=O)C(NC(=O)c1ccc(-c2ccc(Cl)cc2Cl)o1)C(C)C` (stereo unspecified), the TGI in the test with OVCAR-4 ovarian was > 100 µM; in the test on A549 NSCLC, > 100 µM; with SK-MEL-2 melanoma, 63.2 µM; in the test on MOLT-4 leukemia it was 44.7 µM; in the test on LOX IMVI melanoma, 30.9 µM; in the test with HOP-92 NSCLC, 45.9 µM. The TGI in the test with 786-0 renal is 35.1 µM; in the test on SW-620 colon, > 100 µM; in the test on CCRF-CEM leukemia, 33.2 µM; with MDA-MB-435, > 100 µM.

On to `COc1cc2ccc3c4ccccc4cnc3c2cc1OC`, for which the TGI with OVCAR-4 ovarian, in the test with A549 NSCLC, in the test on SK-MEL-2 melanoma, in the test with MALME-3M melanoma, in the test on MOLT-4 leukemia and in the test with LOX IMVI melanoma was > 100 µM throughout. Moreover, the TGI in the test on HOP-92 NSCLC, in the test on 786-0 renal, with SW-620 colon and in the test on CCRF-CEM leukemia was > 100 µM each time.

As for `COC(=O)C(=O)C(C(=O)OC)C(=O)C(=O)Nc1c(C)cccc1C` (stereo unspecified), the TGI in the test on OVCAR-4 ovarian, in the test with A549 NSCLC, in the test on SK-MEL-2 melanoma, in the test on MALME-3M melanoma, with MOLT-4 leukemia and in the test with LOX IMVI melanoma was > 100 µM in each case. Moreover, the TGI in the test on HOP-92 NSCLC, in the test on 786-0 renal, in the test on SW-620 colon and in the test on CCRF-CEM leukemia was > 100 µM each time.

Regarding `FC(F)(F)c1ccccc1C1SCC2=Nc3ccccc3CN21` (stereo unspecified), the TGI with OVCAR-4 ovarian is 30.1 µM; in the test with A549 NSCLC it was 27.6 µM; in the test on MOLT-4 leukemia, > 100 µM; in the test with LOX IMVI melanoma, 28.4 µM; in the test with HOP-92 NSCLC it was 60.9 µM; in the test with 786-0 renal, 24.2 µM. Also, the TGI in the test on SW-620 colon was > 100 µM; in the test on CCRF-CEM leukemia, 95 µM; in the test with MDA-MB-435, 93.1 µM.

Regarding `Nc1nc2c(N)cc(C(F)(F)F)cc2nc1-c1ccccc1`, the TGI with OVCAR-4 ovarian, with A549 NSCLC, in the test with SK-MEL-2 melanoma, in the test on MALME-3M melanoma, in the test with MOLT-4 leukemia and in the test on LOX IMVI melanoma was > 100 µM each time. Besides, the TGI with HOP-92 NSCLC, with 786-0 renal, in the test on SW-620 colon and in the test with CCRF-CEM leukemia was > 100 µM throughout.

With `COC(=O)C1(NC(=O)C(Cc2ccccc2)N(C(=O)OC(C)(C)C)C(=O)OC(C)(C)C)CCCC1` (stereo unspecified), the TGI is > 100 µM in the test with A549 NSCLC; > 100 µM in the test on SK-MEL-2 melanoma; > 100 µM in the test with MOLT-4 leukemia; > 100 µM in the test with LOX IMVI melanoma; > 100 µM with HOP-92 NSCLC; > 10 µM in the test on 786-0 renal. Moreover, the TGI in the test on SW-620 colon, with CCRF-CEM leukemia and with MDA-MB-435 was > 100 µM throughout.

On to `COC(=O)C1CC2C=CC=CC(=O)C2(C)C1` (stereo unspecified), for which the TGI in the test on OVCAR-4 ovarian, in the test on A549 NSCLC, in the test with SK-MEL-2 melanoma, with MALME-3M melanoma, with MOLT-4 leukemia and with LOX IMVI melanoma was > 100 µM throughout. Further, the TGI in the test on 786-0 renal is > 100 µM; in the test on SW-620 colon it was 90.1 µM; in the test on CCRF-CEM leukemia, 71.8 µM.
